Source: patent US9744181B2, “Compositions and methods for combination antiviral therapy” (priority 2003, dated 2017)
Where a name gives a salt, the structure may show the parent alone.

Assays:
[1] = combination tablet, six months at 40° C./75% RH; for loss in % label strength: with desiccant, significant defined as ≧5% degradation
[2] = system: HIV; conditions: patients, once-a-day dose of 200 mg
[3] = system: HIV-1; conditions: in combination with recombinant soluble CD4 castanosperinine and recombinant interferon-α; cited from earlier work
[4] = system: normal human bone marrow progenitor cells; conditions: AZT together with recombinant interferon-α; cited from earlier work
[5] = system: HIV replication; conditions: in combination with PMPA, d4T, ddC, nelfinavir, ritonavir, and saquinavir; cited from earlier work

Nc1nc(=O)n([C@@H]2CS[C@H](CO)O2)cc1F (single isomer, unassigned) [Emtricitabine]
loss in % label strength [1]: No significant loss | average reduction of viral load [2]: 99%

Cc1cn([C@H]2C[C@H](N=[N+]=[N-])[C@@H](CO)O2)c(=O)[nH]c1=O [AZT, 3′-azido, 3′-deoxythymidine]
synergy of antiviral activity in vitro [3]: synergistic antiviral activity | cytotoxic effect [4]: increased cytotoxic effect

CC(C)(C)C(=O)OCOP(=O)(COCCn1cnc2c(N)ncnc21)OCOC(=O)C(C)(C)C [Adefovir dipivoxil]
synergy of inhibition of HIV replication [5]: minor to moderate synergistic inhibition

CC(C)OC(=O)OCOP(=O)(CO[C@H](C)Cn1cnc2c(N)ncnc21)OCOC(=O)OC(C)C [Tenofovir disoproxil fumarate, 9-[(R)-2-[[bis[[(isopropoxycarbonyl)oxy]methoxy]phosphinyl]methoxy]propyl]adenine fumarate (1:1)]
increase in the total degradation products ([1]; packaged and stored with 3 grams of desiccant): 1.5% | loss in % label strength [1]: No significant loss
